Source: patent US20110165173A1, “THERAPEUTIC AGENT AND DETECTION REAGENT FOR ARTERIOSCLEROTIC DISEASE WHICH TARGETS FOR SALUSIN” (PROTEINEXPRESS CO., LTD., priority 2007, published 2011)

How the values were obtained:
SR-A = SR-A expression by macrophages of treated apoE-deficient mice (Western blotting); type: in vivo; settings: four weeks
Procedure: 13-week-old male apoE-deficient mice (72 mice) were divided into the following 6 groups: (i) physiological salt saline (control); (ii) salusin-α (0.6 nmol/kg/h); (iii) salusin-β (0.6 nmol/kg/h); (iv) salusin-α (0.6 nmol/kg/h)+anti-salusin-α serum (1.4 μg/kg/h); (v) salusin-β (0.6 nmol/kg/h)+anti-salusin-β serum (1.4 μg/kg/h); and (vi) anti-salusin-β serum (1.4 μg/kg/h). The mice were subjected to continuous subcutaneous administration with the use of an osmotic mini-pump for 4 to 8 weeks. The osmotic mini-pump and the solution contained therein were changed every week.
Macrophages were collected as in the experiment in (1), and the protein expression of the gene involved in foaming of macrophages (i.e., scavenger receptors CD36 and SR-A capable of recognizing oxidized LDL, intracellular cholesterol esterification enzyme ACAT1, and ABCA1, ABCG1, and SR-BI, which are involved in cholesterol efflux) was analyzed by Western blotting. For the internal standard of the macrophage function, β-actin expression was also examined. For quantification of the band concentration, Analyzer (ATTO Corporation, Tokyo) was used.

[1] = target: T1, mouse mas-like G protein-coupled receptor Al (mMrgA 1) (Mus musculus, UniProt Q91WW5); settings: HEK293T cells expressing mMrgA1; Wang Z et al., Eur J Pharmacol. 2006; cited from earlier work
T1 construct: host or cells: HEK293T cells (heterologous expression, reported by Wang et al., Eur J Pharmacol 2006)
T1 sequence (Q91WW5 1-304): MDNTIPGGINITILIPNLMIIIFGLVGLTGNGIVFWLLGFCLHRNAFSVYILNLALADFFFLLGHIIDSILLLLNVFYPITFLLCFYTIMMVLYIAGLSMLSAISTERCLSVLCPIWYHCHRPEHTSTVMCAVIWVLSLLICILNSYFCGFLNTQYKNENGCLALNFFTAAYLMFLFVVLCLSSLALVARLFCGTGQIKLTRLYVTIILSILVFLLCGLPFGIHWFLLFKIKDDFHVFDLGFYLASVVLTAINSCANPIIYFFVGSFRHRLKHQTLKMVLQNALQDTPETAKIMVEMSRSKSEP

ACAT-1 mRNA expression = ACAT-1 mRNA expression in human monocyte-derived macrophages (real time RT-PCR); type: cell-based; settings: 0.6 nM during 7-day culture
Procedure: RNA extraction was performed using a TRIzol reagent (LIFE TECHNOLOGIES).
Cells were cultured for 7 days in a medium and then the medium was removed. The cells were washed 3 times with PBS. PBS was sufficiently removed therefrom and TRIzol (1 mL) was added thereto for cell lysis. The cell extraction solution was pippeted in and out 5 times and then transferred to a new Eppendorf tube. Then, the tube was left at room temperature for 5 minutes. Chloroform (200 μL) was added thereto, followed by strong shaking for 15 seconds. The tube was further left for 2 to 3 minutes and centrifuged at 12,000 rpm for 15 minutes (Himac CF15D2 high-speed micro refrigerated centrifuge; Hitach, Ltd.). The top layer was transferred to a new Eppendorf tube and isopropanol (500 μL) was added thereto, followed by end-over-end mixing. […] The concentration of the thus obtained RNA solution was obtained by absorbance determination at 260 nm. […]
Next, the RNA expression of ACAT-1 mRNA was analyzed by the real time RT-PCR method.
Primer sequences were determined Primer Express Version 1.0 (PE Biosystems) with the use of the respective human mRNA sequences shown below. […]
Real time PCR was performed to quantify the obtained cDNA by the GeneAmp 5700 Sequence Detection System (Applied Biosystems Japan) with the use of qPCR MasterMix SYBR Greenl (Eurogentec). […]

| Substance | SR-A protein expression relative to control level (SR-A; 0.6 nmol/kg/h, range given jointly for CD36, SR-A, ACAT1, P<0.05) [times] | ligand for mMrgA1 [1] | ACAT-1 mRNA expression level relative to control (ACAT-1 mRNA expression) [times] | SR-A protein expression (SR-A; salusin-α 0.6 nmol/kg/h) | ACAT-1 mRNA expression level, percent of that of the control (ACAT-1 mRNA expression) [%] |
| --- | --- | --- | --- | --- | --- |
| salusin-β: peptide (SEQ ID NO: 3) comprising 20 amino acid residues, generated by processing from preprosalusin (AIFIFIRWLLKLGHHGRAPP; listed as Homo sapiens) [reference compound] | 1.5 to 2.8 | regarded as a ligand | 1.6 | – | – |
| salusin-α: peptide (SEQ ID NO: 1) comprising 28 amino acid residues, generated by processing from preprosalusin (SGALPPAPAAPRPALRAQRAGPAGPGAK; listed as Homo sapiens) | – | does not serve as a ligand | – | did not influence | 80 |
